Measured values published in ChEMBL document CHEMBL5291721, “A preclinical secondary pharmacology resource illuminates target-adverse drug reaction associations of marketed drugs” (Nat Commun, 2023).

Key:
[1] = biological target: T1, Alpha-1A adrenergic receptor (Homo sapiens, UniProt P35348); assay type: functional, cell-based
T1 sequence (P35348 whole entry): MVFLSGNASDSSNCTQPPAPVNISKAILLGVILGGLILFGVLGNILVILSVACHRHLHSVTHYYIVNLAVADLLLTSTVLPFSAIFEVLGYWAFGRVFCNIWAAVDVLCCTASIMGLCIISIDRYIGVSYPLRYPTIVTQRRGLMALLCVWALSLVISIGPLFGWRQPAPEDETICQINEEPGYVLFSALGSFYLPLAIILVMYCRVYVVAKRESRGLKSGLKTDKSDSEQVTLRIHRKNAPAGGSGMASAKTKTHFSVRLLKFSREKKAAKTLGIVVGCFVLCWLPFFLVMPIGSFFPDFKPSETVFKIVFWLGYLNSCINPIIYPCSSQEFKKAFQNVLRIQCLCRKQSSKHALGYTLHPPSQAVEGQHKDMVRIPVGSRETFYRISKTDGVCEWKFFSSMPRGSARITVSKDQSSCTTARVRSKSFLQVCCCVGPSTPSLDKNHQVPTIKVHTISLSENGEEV

[2] = biological target: T2, Estrogen receptor (Homo sapiens, UniProt P03372)
T2 sequence (P03372 whole entry): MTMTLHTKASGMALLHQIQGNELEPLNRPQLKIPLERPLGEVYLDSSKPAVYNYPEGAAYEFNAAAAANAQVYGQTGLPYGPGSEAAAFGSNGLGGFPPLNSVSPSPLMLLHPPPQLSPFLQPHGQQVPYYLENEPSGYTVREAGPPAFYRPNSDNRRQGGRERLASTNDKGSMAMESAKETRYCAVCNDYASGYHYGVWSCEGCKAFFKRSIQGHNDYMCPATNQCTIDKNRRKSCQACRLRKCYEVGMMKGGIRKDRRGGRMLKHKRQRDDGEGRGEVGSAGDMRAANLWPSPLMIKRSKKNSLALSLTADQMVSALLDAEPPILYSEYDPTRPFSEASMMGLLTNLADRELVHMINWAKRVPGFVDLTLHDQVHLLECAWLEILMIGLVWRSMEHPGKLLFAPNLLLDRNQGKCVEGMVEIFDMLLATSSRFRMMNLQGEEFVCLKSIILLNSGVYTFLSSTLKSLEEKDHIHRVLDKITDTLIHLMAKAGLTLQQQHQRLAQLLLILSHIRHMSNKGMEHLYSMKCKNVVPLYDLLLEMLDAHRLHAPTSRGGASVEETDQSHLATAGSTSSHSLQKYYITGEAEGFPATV

[3] = biological target: Vascular endothelial growth factor receptor 2 (Homo sapiens, UniProt P35968); assay type: functional
Vascular endothelial growth factor receptor 2, sequence (P35968 whole entry): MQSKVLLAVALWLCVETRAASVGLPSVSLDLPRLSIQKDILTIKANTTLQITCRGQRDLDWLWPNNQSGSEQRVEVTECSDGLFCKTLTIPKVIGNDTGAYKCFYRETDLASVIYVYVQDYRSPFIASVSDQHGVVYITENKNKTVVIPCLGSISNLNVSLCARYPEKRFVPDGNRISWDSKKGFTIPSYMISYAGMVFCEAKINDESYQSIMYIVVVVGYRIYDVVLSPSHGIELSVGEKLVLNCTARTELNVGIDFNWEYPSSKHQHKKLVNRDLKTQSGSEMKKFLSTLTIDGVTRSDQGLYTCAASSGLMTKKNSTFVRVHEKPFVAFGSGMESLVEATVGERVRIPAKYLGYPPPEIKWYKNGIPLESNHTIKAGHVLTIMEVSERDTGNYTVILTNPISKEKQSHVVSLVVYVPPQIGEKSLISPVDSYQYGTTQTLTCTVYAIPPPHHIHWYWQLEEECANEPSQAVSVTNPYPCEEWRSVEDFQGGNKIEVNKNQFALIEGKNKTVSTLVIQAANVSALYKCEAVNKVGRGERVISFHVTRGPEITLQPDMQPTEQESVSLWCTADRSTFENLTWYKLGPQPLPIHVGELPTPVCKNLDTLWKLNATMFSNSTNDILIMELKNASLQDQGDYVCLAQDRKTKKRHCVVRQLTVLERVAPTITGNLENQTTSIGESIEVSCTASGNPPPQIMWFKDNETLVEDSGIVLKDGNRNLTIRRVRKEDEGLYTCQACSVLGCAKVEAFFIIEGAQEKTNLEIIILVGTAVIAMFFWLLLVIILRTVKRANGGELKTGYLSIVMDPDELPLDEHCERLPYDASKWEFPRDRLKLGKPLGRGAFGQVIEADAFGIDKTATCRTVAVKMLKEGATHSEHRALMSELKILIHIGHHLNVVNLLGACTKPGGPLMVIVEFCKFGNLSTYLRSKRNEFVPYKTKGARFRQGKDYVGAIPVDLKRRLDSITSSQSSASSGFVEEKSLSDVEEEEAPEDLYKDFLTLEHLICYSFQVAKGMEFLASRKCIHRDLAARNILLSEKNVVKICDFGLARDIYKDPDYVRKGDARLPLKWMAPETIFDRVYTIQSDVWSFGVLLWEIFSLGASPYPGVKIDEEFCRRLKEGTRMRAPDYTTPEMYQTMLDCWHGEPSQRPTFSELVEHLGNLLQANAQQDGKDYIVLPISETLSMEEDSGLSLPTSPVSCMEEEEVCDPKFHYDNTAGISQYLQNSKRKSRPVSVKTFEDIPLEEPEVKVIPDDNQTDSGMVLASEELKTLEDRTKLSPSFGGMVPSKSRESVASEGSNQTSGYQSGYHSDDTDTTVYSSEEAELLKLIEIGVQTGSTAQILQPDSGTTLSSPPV

[4] = biological target: Sodium-dependent serotonin transporter (Homo sapiens, UniProt P31645)
Sodium-dependent serotonin transporter, sequence (P31645 whole entry): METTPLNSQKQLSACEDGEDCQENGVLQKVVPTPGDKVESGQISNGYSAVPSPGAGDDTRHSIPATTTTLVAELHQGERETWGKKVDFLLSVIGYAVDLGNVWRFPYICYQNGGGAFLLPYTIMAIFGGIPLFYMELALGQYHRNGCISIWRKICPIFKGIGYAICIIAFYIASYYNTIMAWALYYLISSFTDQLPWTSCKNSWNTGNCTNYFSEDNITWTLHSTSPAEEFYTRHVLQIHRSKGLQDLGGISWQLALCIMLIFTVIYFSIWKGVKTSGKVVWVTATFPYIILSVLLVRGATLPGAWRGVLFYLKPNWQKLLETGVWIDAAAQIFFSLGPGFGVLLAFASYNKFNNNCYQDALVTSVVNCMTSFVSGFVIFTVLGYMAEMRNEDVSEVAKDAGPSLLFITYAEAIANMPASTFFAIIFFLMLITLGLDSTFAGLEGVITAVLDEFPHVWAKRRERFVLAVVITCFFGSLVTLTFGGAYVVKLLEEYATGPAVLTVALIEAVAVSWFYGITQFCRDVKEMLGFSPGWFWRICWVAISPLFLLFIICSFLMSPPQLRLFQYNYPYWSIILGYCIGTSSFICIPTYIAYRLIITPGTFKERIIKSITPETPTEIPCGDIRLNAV
Further: assay procedure not described here.

SMILES: C[C@H]1O[C@@H](O[C@H]2CC[C@@]3(C)[C@H](CC[C@@H]4[C@@H]3C[C@@H](O)[C@]3(C)[C@@H](C5=CC(=O)OC5)CC[C@]43O)C2)C[C@H](O)[C@@H]1O[C@H]1C[C@H](O)[C@H](O[C@H]2C[C@H](O)[C@H](O[C@@H]3O[C@H](CO)[C@@H](O)[C@H](O)[C@H]3O)[C@@H](C)O2)[C@@H](C)O1 [DESLANOSIDE]
- AC50 [1]: > 30 µM
- AC50 [2]: > 30 µM
- AC50 [3]: > 30 µM
- AC50 [4]: > 30 µM

SMILES: C[N+](C)(CCCCCC[N+](C)(C)C1c2ccccc2-c2ccccc21)C1c2ccccc2-c2ccccc21 [HEXAFLUORENIUM]
- AC50 [1]: 3.09 µM
- AC50 [2]: > 30 µM
- AC50 [3]: > 30 µM
- AC50 [4]: 3.02 µM

SMILES: CCCCC(CC)CN1CN(CC(CC)CCCC)CC(C)(N)C1 (configuration not stated) [HEXETIDINE]
- AC50 [1]: > 30 µM
- AC50 [2]: > 30 µM
- AC50 [3]: > 30 µM
- AC50 [4]: 6.51 µM

SMILES: Cc1cc(=O)oc2cc(O)ccc12 [HYMECROMONE]
- AC50 [1]: > 30 µM
- AC50 [2]: > 30 µM
- AC50 [3]: 25.4 µM
- AC50 [4]: > 30 µM

SMILES: C[N+]1(C)CCCC(OC(=O)C(O)(c2ccccc2)c2ccccc2)C1 (configuration not stated) [MEPENZOLATE]
- AC50 [1]: > 30 µM
- AC50 [2]: > 30 µM
- AC50 [3]: > 30 µM
- AC50 [4]: 20.4 µM

SMILES: O=C(NNCS(=O)(=O)O)c1ccncc1 [METHANIAZIDE]
- AC50 [1]: > 30 µM
- AC50 [2]: > 30 µM
- AC50 [3]: > 30 µM
- AC50 [4]: > 30 µM

SMILES: Cc1cc(=O)[nH]c(=S)[nH]1 [METHYLTHIOURACIL]
- AC50 [1]: > 30 µM
- AC50 [2]: > 30 µM
- AC50 [3]: > 30 µM
- AC50 [4]: > 30 µM

SMILES: CN(C)c1ccc(O)c2c1C[C@H]1C[C@H]3[C@H](N(C)C)C(O)=C(C(N)=O)C(=O)[C@@]3(O)C(O)=C1C2=O [MINOCYCLINE]
- AC50 [1]: > 30 µM
- AC50 [2]: > 30 µM
- AC50 [3]: > 30 µM
- AC50 [4]: > 30 µM

SMILES: CCNC(=O)/C=C(C)/C=C/C=C(C)/C=C/c1c(C)cc(OC)c(C)c1C [MOTRETINIDE]
- AC50 [1]: > 30 µM
- AC50 [2]: 16.4 µM
- AC50 [3]: > 30 µM
- AC50 [4]: 28.3 µM

SMILES: C=CC(=O)Nc1cccc(Oc2nc(Nc3ccc(N4CCN(C)CC4)cc3)nc3ccsc23)c1 [OLMUTINIB]
- AC50 [1]: 4.91 µM
- AC50 [2]: 28.6 µM
- AC50 [3]: 2.06 µM
- AC50 [4]: > 30 µM

SMILES: Nc1cccc2c1C(=O)N(C1CCC(=O)NC1=O)C2=O (configuration not stated) [POMALIDOMIDE]
- AC50 [1]: > 30 µM
- AC50 [2]: > 30 µM
- AC50 [3]: > 30 µM
- AC50 [4]: > 30 µM

SMILES: C[Se]CC[C@H](N)C(=O)O [SELENOMETHIONINE]
- AC50 [1]: > 30 µM
- AC50 [2]: > 30 µM
- AC50 [3]: > 30 µM
- AC50 [4]: > 30 µM

SMILES: Cc1ccsc1C(=CCCN1CCC[C@@H](C(=O)O)C1)c1sccc1C [TIAGABINE]
- AC50 [1]: > 30 µM
- AC50 [2]: > 30 µM
- AC50 [3]: > 30 µM
- AC50 [4]: > 30 µM
